Reference: US20120202794A1 (priority 2011, published 2012)

Columns and labels:
[1] = tested on: HCV Replicon 1b; test: HCV inhibition assay, HCV replicon 1b (Clone A or ET-lunet cells; RT-PCR or luciferase reporter); assay type: cell-based; details: Hepatitis C virus, 96 h, HCV replicon 1b; 4 days incubation; read-out: Replicon 1b potency EC90
Outline: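 Clone A (1500/well) or ET-lunet (3000/well) replicon cells treated with serially diluted compounds (0.5% DMSO, no G418) for 4 days at 37 °C. HCV RNA measured by one-step RT-PCR normalized to rRNA (ΔΔCt) or by luciferase luminescence versus DMSO controls; EC50/EC90 by curve fitting.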

[2] = Cell cytotoxicity assay (MTS), CC90 as reported in Table 1, cell line not stated; assay type: cell-based; details: human, cell line not given
Outline: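 Compounds, serially diluted from 100 μM, were incubated 8 days at 37° C with Huh7, HepG2 or BxPC3 (2×10^3 cells/well) or CEM (5×10^3 cells/well). Viability was read by MTS, 2 h, absorbance 490 nm. CC90 (90% inhibition) was taken against untreated cells.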

Row | SMILES | EC90 [1] [µM] | CC90 at 8 days [2] [µM] | CC90 at 8 days ([2]; MTS assay, 8 days incubation) [µM]
1 | CC(C)C[C@H]1C(=O)N[C@@H](C2CCCCC2)CN1C(=O)[C@@H]1C[C@H]1c1ccc(F)c(F)c1 [Compound 258, (3S,6S)-6-Cyclohexyl-4-[(1R,2R)-2-(3,4-difluoro-phenyl)-cyclopropanecarbonyl]-3-isobutyl-piperazin-2-one] | 0.56 | > 10 | 
2 | CC(C)C[C@H]1C(=O)N[C@@H](C2CCCC2)CN1C(=O)[C@@H]1C[C@H]1c1ccc(F)c(F)c1 [Compound 259, (3S,6S)-6-Cyclopentyl-4-[(1R,2R)-2-(3,4-difluoro-phenyl)-cyclopropanecarbonyl]-3-isobutyl-piperazin-2-one] | 0.59 | > 10 | 
3 | CC(C)C[C@H]1C(=O)N[C@@H](c2ccccc2)CN1C(=O)[C@@H]1C[C@H]1c1ccc(F)c(F)c1 [Compound 260, (3S,6S)-4-[(1R,2R)-2-(3,4-Difluoro-phenyl)-cyclopropanecarbonyl]-3-isobutyl-6-phenyl-piperazin-2-one] | 0.23 | > 10 | 
4 | CC(C)C[C@H]1CN(C(=O)/C=C/c2ccc(N(C)C)cc2)[C@@H](CC(C)C)C(=O)N1 [Compound 261, (3S,6S)-4-((E)-3-(4-(dimethylamino)phenyl)acryloyl)-3,6-diisobutylpiperazin-2-one] | > 10 |  | > 10
5 | CC(C)C[C@H]1CN(C(=O)C#Cc2cccnc2)[C@@H](CC(C)C)C(=O)N1 [Compound 262, (3S,6S)-3,6-diisobutyl-4-(3-(pyridin-3-yl)propioloyl)piperazin-2-one] | > 10 |  | > 10
6 | COc1ccc(/C=C/C(=O)N2C[C@H](CC(C)C)NC(=O)[C@@H]2CC(C)C)cc1 [Compound 263, (3S,6S)-3,6-diisobutyl-4-((E)-3-(4-methoxyphenyl)acryloyl)piperazin-2-one] | 8.7 |  | > 10
7 | CC(C)C[C@H]1CN(C(=O)/C=C/c2cccc(Cl)c2)[C@@H](CC(C)C)C(=O)N1 [Compound 264, (3S,6S)-4-[3-(3-chlorophenyl)-acryloyl]-3,6-diisobutyl-piperazin-2-one] | 8.1 |  | > 10
8 | CC(C)C[C@H]1CN(C(=O)/C=C/c2ccccc2Cl)[C@@H](CC(C)C)C(=O)N1 [Compound 265, (3S,6S)-4-[3-(2-chlorophenyl)-acryloyl]-3,6-diisobutyl-piperazin-2-one] | 9.75 |  | > 10
9 | CC(C)C[C@H]1CN(C(=O)/C=C/c2ccccc2F)[C@@H](CC(C)C)C(=O)N1 [Compound 266] | 7.93 |  | > 10
10 | CC(C)C[C@H]1CN(C(=O)/C=C/c2ccc(Cl)cc2Cl)[C@@H](CC(C)C)C(=O)N1 [Compound 267, (3S,6S)-4-[3-(2,4-dichloro-phenyl)-acryloyl]-3,6-diisobutyl-piperazin-2-one] | 6.89 |  | > 10
11 | CSc1ccc(/C=C/C(=O)N2C[C@H](CC(C)C)NC(=O)[C@@H]2CC(C)C)cc1 [Compound 268, (3S,6S)-3,6-diisobutyl-4-((E)-3-(4-methylsulfanyl-phenyl)acryloyl)piperazin-2-one] | 9.8 |  | > 10
12 | CC(C)C[C@H]1CN(C(=O)/C=C/c2ccc(C(C)(C)C)cc2)[C@@H](CC(C)C)C(=O)N1 [Compound 269, (3S,6S)-3,6-diisobutyl-4-((E)-3-(4-tert-butyl-phenyl)acryloyl)piperazin-2-one] | 8.9 |  | > 10
13 | COC(=O)c1ccc(/C=C/C(=O)N2C[C@H](CC(C)C)NC(=O)[C@@H]2CC(C)C)cc1 [Compound 270, Methyl 4-((E)-3-((2S,5S)-2,5-diisobutyl-3-oxopiperazin-1-yl)-3-oxoprop-1-en-1-yl)-benzoate] | > 10 |  | > 10
14 | CC(C)C[C@H]1CN(C(=O)/C=C/c2c(F)cccc2F)[C@@H](CC(C)C)C(=O)N1 [Compound 271, (3S,6S)-4-[3-(2,6-Difluoro-phenyl)-acryloyl]-3,6-diisobutyl-piperazin-2-one] | > 10 |  | > 10
15 | CC(C)C[C@H]1CN(C(=O)c2cc(-c3ccc(Cl)cc3)cs2)[C@@H](CC(C)C)C(=O)N1 [Compound 272, (3S,6S)-4-(4-(4-chlorophenyl)thiophene-2-carbonyl)-3,6-diisobutylpiperazin-2-one] | 3.56 |  | > 10
16 | CC(C)C[C@H]1CN(C(=O)c2cc(-c3ccccc3Cl)on2)[C@@H](CC(C)C)C(=O)N1 [Compound 274, (3S,6S)-4-(5-(2-chlorophenyl)isoxazole-3-carbonyl)-3,6-diisobutylpiperazin-2-one] | 5.95 |  | > 10

Row | SMILES | EC90 [1] [µM] | CC90 at 8 days [2] [µM] | CC90 at 8 days ([2]; MTS assay, 8 days incubation) [µM]
17 | CC(C)C[C@H]1CN(C(=O)c2cc(-c3ccc(Cl)cc3Cl)on2)[C@@H](CC(C)C)C(=O)N1 [Compound 275, (3S,6S)-4-(5-(2,4-dichlorophenyl)isoxazole-3-carbonyl)-3,6-diisobutylpiperazin-2-one] | 6.31 |  | > 10
18 | CC(C)C[C@H]1CN(C(=O)c2cc(-c3ccc(Cl)c(Cl)c3)on2)[C@@H](CC(C)C)C(=O)N1 [Compound 276, (3S,6S)-4-(5-(3,4-Dichlorophenyl)isoxazole-3-carbonyl)-3,6-diisobutylpiperazin-2-one] | 2.98 |  | > 10
19 | CSc1ccc(-c2cc(C(=O)N3C[C@H](CC(C)C)NC(=O)[C@@H]3CC(C)C)no2)cc1 [Compound 277, (3S,6S)-3,6-diisobutyl-4-(5-(4-(methylthio)phenyl)isoxazole-3-carbonyl)piperazin-2-one] | 5.84 |  | > 10
20 | CC(C)C[C@H]1CN(C(=O)Cc2cc(-c3ccc(F)cc3)on2)[C@@H](CC(C)C)C(=O)N1 [Compound 278, (3S,6S)-4-(2-(5-(4-fluorophenyl)isoxazol-3-yl)acetyl)-3,6-diisobutylpiperazin-2-one] | 7.89 |  | > 10
21 | CC(C)C[C@H]1C(=O)N[C@@H](CC(C)(C)C)CN1C(=O)[C@@H]1C[C@H]1c1ccccc1 [Compound 280, (3S,6S)-3-isobutyl-6-neopentyl-4-((1R,2R)-2phenylcyclopropanecarbonyl)piperazin-2-one] | 8.65 |  | > 10
22 | CC(C)(C)C[C@H]1CN(C(=O)[C@@H]2C[C@H]2c2ccccc2)[C@@H](CC(C)(C)C)C(=O)N1 [Compound 281, (3S,6S)-3,6-dineopentyl-4-((1R,2R)-2-phenylcyclopropanecarbonyl)-piperazin-2-one] | > 10 |  | > 10
23 | CCc1ccc(-c2cc(C(=O)N3C[C@H](CC(C)C)NC(=O)[C@@H]3CC(C)C)no2)cc1 [Compound 283, (3S,6S)-4-(5-(4-ethylphenyl)isoxazole-3-carbonyl)-3,6-diisobutylpiperazin-2-one] | 8.75 |  | > 10
24 | CC(C)C[C@H]1CN(C(=O)c2cc(-c3ccc(C4CC4)cc3)on2)[C@@H](CC(C)C)C(=O)N1 [Compound 284, (3S,6S)-4-(5-(4-cyclopropylphenyl)isoxazole-3-carbonyl)-3,6-diisobutylpiperazin-2-one] | > 10 |  | > 10
25 | COc1ccc2c(c1)CCc1cc(C(=O)N3C[C@H](CC(C)C)NC(=O)[C@@H]3CC(C)C)sc1-2 [Compound 286, (3S,6S)-3,6-diisobutyl-4-(7-methoxy-4,5-dihydronaphtho[1,2-b]thiophene-2-carbonyl)piperazin-2-one] | 3.91 |  | > 10
26 | CC(C)C[C@H]1CN(C(=O)c2cc(-c3cc(F)cc(F)c3)on2)[C@@H](CC(C)C)C(=O)N1 [Compound 287, (3S,6S)-4-(5-(3,5-difluorophenyl)isoxazole-3-carbonyl)-3,6-diisobutylpiperazin-2-one] | 3.57 |  | > 10
27 | CC(C)C[C@H]1C(=O)N[C@@H](CC2CC2)CN1C(=O)c1cc(-c2ccc(F)cc2F)on1 [Compound 288, (3S,6S)-6-(cyclopropylmethyl)-4-(5-(2,4-difluorophenyl)isoxazole-3-carbonyl)-3-isobutylpiperazin-2-one] | 1.6 |  | > 10
28 | COc1ccc2c(c1)CCc1c(C(=O)N3C[C@H](CC(C)C)NC(=O)[C@@H]3CC(C)C)noc1-2 [Compound 289, (3S,6S)-3,6-diisobutyl-4-(7-methoxy-4,5-dihydronaphtho[2,1-d]isoxazole-3-carbonyl)piperazin-2-one] | 5.01 |  | > 10
29 | CCC[C@H]1CN(C(=O)c2noc(-c3ccc(F)cc3)n2)[C@@H](CC(C)C)C(=O)N1 [Compound 290, (3S,6S)-4-(5-(4-fluorophenyl)-1,2,4-oxadiazole-3-carbonyl)-3-isobutyl-6-propylpiperazin-2-one] | 0.14 |  | > 10
30 | CC(C)C[C@H]1C(=O)N[C@@H](C2CCCCC2)CN1C(=O)c1noc(-c2ccc(F)cc2)n1 [Compound 291, (3S,6S)-6-cyclohexyl-4-(5-(4-fluorophenyl)-1,2,4-oxadiazole-3-carbonyl)-3-isobutylpiperazin-2-one] | 0.33 |  | > 10
31 | CC(C)C[C@H]1CN(C(=O)c2noc(-c3ccc(F)cc3)n2)[C@@H](CC(C)C)C(=O)N1 [Compound 293, (3S,6S)-4-(5-(4-Fluorophenyl)-1,2,4-oxadiazole-3-carbonyl)-3,6-diisobutylpiperazin-2-one] | 0.27 |  | > 10
32 | CC(C)C[C@H]1C(=O)N[C@@H](C2CCCC2)CN1C(=O)c1noc(-c2ccc(F)cc2)n1 [Compound 294, (3S,6S)-6-Cyclopentyl-4-(5-(4-fluorophenyl)-1,2,4-oxadiazole-3-carbonyl)-3-isobutylpiperazin-2-one] | 0.35 |  | > 10
